In patent publication US4298690A, “Antibiotics XK-62-3 and XK-62-4 and process for production thereof” (Kyowa Hakko Kogyo Co., Ltd., priority 1977, dated 1981):
≈ marks a conversion by molar mass, not a printed value. Where a name gives a salt, the structure may show the parent alone.

Key:
[1] = system: Bacillus subtilis No. 10707; assay: MIC by agar dilution method at pH 8.0, Bacillus subtilis No. 10707; type: cell-based; conditions: read-out: Minimum Inhibitory Concentration
Source text: (§1) Table 4 illustrates the antibacterial spectra of XK-62-3 and XK-62-4 against various microorganisms.
(§2) (Minimum Inhibitory Concentration, γ/ml
(§3) measured by agar dilution method at pH 8.0)

[2] = system: Staphylococcus aureus ATCC 6538P; assay: MIC by agar dilution method at pH 8.0, Staphylococcus aureus ATCC 6538P; type: cell-based; conditions: ATCC6538P, read-out: Minimum Inhibitory Concentration
Source text: as §1, §2, §3

[3] = system: Klebsiella pneumoniae ATCC 10031; assay: MIC by agar dilution method at pH 8.0, Klebsiella pneumoniae ATCC 10031; type: cell-based; conditions: ATCC10031, read-out: Minimum Inhibitory Concentration
Source text: as §1, §2, §3

[4] = system: Klebsiella pneumoniae KY 4261; assay: MIC by agar dilution method at pH 8.0, Klebsiella pneumoniae KY 4261; type: cell-based; conditions: KY4261, read-out: Minimum Inhibitory Concentration
Source text: as §1, §2, §3

[5] = system: Escherichia coli ATCC 26; assay: MIC by agar dilution method at pH 8.0, Escherichia coli ATCC 26; type: cell-based; conditions: ATCC26, read-out: Minimum Inhibitory Concentration
Source text: as §1, §2, §3

[6] = system: Escherichia coli KY 8310; assay: MIC by agar dilution method at pH 8.0, Escherichia coli KY 8310; type: cell-based; conditions: KY8310, read-out: Minimum Inhibitory Concentration
Source text: as §1, §2, §3

[7] = system: Escherichia coli KY 8327; assay: MIC by agar dilution method at pH 8.0, Escherichia coli KY 8327; type: cell-based; conditions: KY8327, pH 8, read-out: Minimum Inhibitory Concentration
Source text: as §1, §2, §3

[8] = system: Escherichia coli KY 8348; assay: MIC by agar dilution method at pH 8.0, Escherichia coli KY 8348; type: cell-based; conditions: KY8348, Escherichia coli KY 8348, resistant to gentamicin, AAC(3)-I, read-out: Minimum Inhibitory Concentration
Source text: as §1, §2, §3

[9] = system: Escherichia coli KY 8356; assay: MIC by agar dilution method at pH 8.0, Escherichia coli KY 8356; type: cell-based; conditions: KY8356, read-out: Minimum Inhibitory Concentration
Source text: as §1, §2, §3

[10] = system: Pseudomonas aeruginosa BMH No. 1; assay: MIC by agar dilution method at pH 8.0, Pseudomonas aeruginosa BMH No. 1; type: cell-based; conditions: BMHNO.1, read-out: Minimum Inhibitory Concentration
Source text: as §1, §2, §3

[11] = system: Pseudomonas aeruginosa KY 8563; assay: MIC by agar dilution method at pH 8.0, Pseudomonas aeruginosa KY 8563; type: cell-based; conditions: KY8563, Pseudomonas aeruginosa KY 8563, resistant to gentamicin, AAC(3)-II, read-out: Minimum Inhibitory Concentration
Source text: as §1, §2, §3

[12] = system: Pseudomonas aeruginosa KY 8511; assay: MIC by agar dilution method at pH 8.0, Pseudomonas aeruginosa KY 8511; type: cell-based; conditions: KY8511, Pseudomonas aeruginosa KY 8511, resistant to gentamicin, AAC(3)-I, read-out: Minimum Inhibitory Concentration
Source text: as §1, §2, §3

[13] = system: Pseudomonas aeruginosa Z 444; assay: MIC by agar dilution method at pH 8.0, Pseudomonas aeruginosa Z 444; type: cell-based; conditions: Z444, Pseudomonas aeruginosa Z 444, resistant to gentamicin, AAC(6')-III, read-out: Minimum Inhibitory Concentration
Source text: as §1, §2, §3

[14] = system: Proteus vulgaris ATCC 6897; assay: MIC by agar dilution method at pH 8.0, Proteus vulgaris ATCC 6897; type: cell-based; conditions: ATCC6897, read-out: Minimum Inhibitory Concentration
Source text: as §1, §2, §3

[15] = system: Shigella sonnei ATCC 9290; assay: MIC by agar dilution method at pH 8.0, Shigella sonnei ATCC 9290; type: cell-based; conditions: ATCC9290, read-out: Minimum Inhibitory Concentration
Source text: as §1, §2, §3

[16] = system: Salmonella typhosa ATCC 9992; assay: MIC by agar dilution method at pH 8.0, Salmonella typhosa ATCC 9992; type: cell-based; conditions: Salmonella enterica, pH 8, read-out: Minimum Inhibitory Concentration
Source text: as §1, §2, §3

[17] = system: Serratia marcescens KY 4248; assay: MIC by agar dilution method at pH 8.0, Serratia marcescens KY 4248; type: cell-based; conditions: KY4248, read-out: Minimum Inhibitory Concentration
Source text: as §1, §2, §3

[18] = system: Providenicia sp. KY 8464; assay: MIC by agar dilution method at pH 8.0, Providenicia sp. KY 8464; type: cell-based; conditions: read-out: Minimum Inhibitory Concentration
Source text: as §1, §2, §3

[19] = Acute toxicity in dd-mice; conditions: mouse, in vivo
[20] = Solubility of the free base; type: physicochemical; conditions: for solubility in organic solvents: chloroform, benzene, ethyl acetate, butyl acetate, ether, butanol, petroleum ether, n-hexane
[21] = system: Bacillus subtilis No. 10707; assay: Activity (units) of purified preparate; type: cell-based; conditions: for activity: per mg not given, Examples 2D, 3, 4
Method: The activity of the eluate is determined against Bacillus subtilis No. 10707 by a paper disk method using an agar plate. Active fractions are combined and concentrated in vacuo to about 3 L. The concentrate is adjusted to pH 8.0 with 6 N sulfuric acid and passed through a column packed with 3 L of an anion exchange resin, Dowex 1×2 (OH^- form). The column is washed with about 20 L of water and active principles are eluted with 1 N aqueous ammonia. The active fractions are combined and concentrated to 1/10 by volume. The pH of the concentrate is adjusted to 10.5 with 6 N sodium hydroxide and 4 volumes of acetone is added thereto. The resulting precipitate is removed by filtration and the acetone layer is concentrated to 2 L. The concentrate is adjusted to pH 4.5 with 6 N sulfuric acid and then 10 L of methanol is added thereto. After cooling, a white precipitate is obtained. The precipitate is separated by filtration and washed with methanol. After drying in vacuo, about 250 g of white powder (sulfate form) is obtained.
The residue is dissolved in a small amount of water and the solution is freeze-dried to obtain about 1.5 g of purified preparate of the free base of XK-62-3.
The residue is dissolved in a small amount of water and the solution is freeze-dried to obtain about 2.2 g of purified preparate of the free base of XK-62-4.
After the completion of fermentation, the culture liquor is adjusted to pH 2.0 with 12 N sulfuric acid and stirred for 30 minutes. Then, about 20 kg of Radiolite No. 600 (filter aid) is added thereto and the microbial cells are removed by filtration. The filtrate is adjusted to pH 8.0 with 6 N sodium hydroxide and passed through a column packed with 100 L of a cation exchange resin, Amberlite IRC-50 (NH4^+ form). After washing the resin with water, the active substances are eluted out with 1 N aqueous ammonia. The eluate is obtained in fractions and the activity of each of the fractions is determined against Bacillus subtilis No. 10707 by a paper disc method using an agar plate. The eluate is concentrated to 2 L under reduced pressure. The concentrate is adjusted to pH 4.5 with 6 N sulfuric acid and the resulting insoluble substance is removed by filtration. To the filtrate 20 L of methanol is added to form a white precipitate. The precipitate is separated by filtration and washed with methanol. After drying in vacuo, 500 g of white powder, of a crude XK-62 series (sulfate form) is obtained.

[22] = system: Gram-positive and Gram-negative bacteria; assay: Antibacterial activity against a broad range of bacteria (in words); type: cell-based
Source text: as §1, §2, §3

[23] = system: resistant strains of Escherichia coli and Pseudomonas aeruginosa (3-N-acetylation, 2"-adenylation); assay: Antibacterial activity against resistant strains with 3-N-acetylation, 2"-adenylation (in words); type: cell-based; conditions: E. coli and P. aeruginosa resistant by 3-N-acetylation, etc.
Source text: as §1, §2, §3

[24] = system: resistant strains of Escherichia coli and Pseudomonas aeruginosa (6'-N-acetylation); conditions: strains with 6'-N-acetylation, etc.; known antibiotics; cited from earlier work
[25] = system: resistant strains of Escherichia coli and Pseudomonas aeruginosa (3-N-acetylation, 2"-adenylation); conditions: strains with 3-N-acetylation, etc., known antibiotics; cited from earlier work
[26] = system: Escherichia coli KY 8332; assay: MIC by agar dilution method at pH 8.0, Escherichia coli KY 8332; type: cell-based; conditions: KY8332, Escherichia coli KY 8332, resistant to kanamycin, AAC(6')-I, read-out: Minimum Inhibitory Concentration
Source text: as §1, §2, §3

[27] = system: Pseudomonas aeruginosa Z 445; assay: MIC by agar dilution method at pH 8.0, Pseudomonas aeruginosa Z 445; type: cell-based; conditions: Z445, Pseudomonas aeruginosa Z 445, resistant to gentamicin, AAC(6')-III, read-out: Minimum Inhibitory Concentration
Source text: as §1, §2, §3

[28] = system: resistant strains of Escherichia coli and Pseudomonas aeruginosa (6'-N-acetylation); assay: Antibacterial activity against resistant strains with 6'-N-acetylation (in words); type: cell-based; conditions: E. coli and P. aeruginosa resistant by 6'-N-acetylation, etc.
Source text: as §1, §2, §3

[29] = free base, Example 1, 1 mg of pure preparate corresponds to 1000 units

CNC1CC(N)C(OC2OCC(C)(O)C(NC)C2O)C(O)C1OC1OC(CN)CCC1N (stereo not shown) [XK-62-3]
MIC [1]: < 0.0011 µg/mL
MIC [2]: 0.0021 µg/mL (≈ 0.00453 µM)
MIC [3]: 0.0082 µg/mL (≈ 0.0177 µM)
MIC [4]: 0.066 µg/mL (≈ 0.142 µM)
MIC [5]: 0.066 µg/mL (≈ 0.142 µM)
MIC [6]: 0.066 µg/mL (≈ 0.142 µM)
MIC [7]: 0.066 µg/mL (≈ 0.142 µM)
MIC [8]: 0.033 µg/mL (≈ 0.0712 µM)
MIC [9]: 0.26 µg/mL (≈ 0.561 µM)
MIC [10]: 0.26 µg/mL (≈ 0.561 µM)
MIC [11]: 0.25 µg/mL (≈ 0.539 µM)
MIC [12]: 0.26 µg/mL (≈ 0.561 µM)
MIC [13]: > 10 µg/mL
MIC [14]: 0.26 µg/mL (≈ 0.561 µM)
MIC [15]: 0.13 µg/mL (≈ 0.28 µM)
MIC [16]: 0.033 µg/mL (≈ 0.0712 µM)
MIC [17]: 1.52 µg/mL (≈ 3.28 µM)
MIC [18]: 1.04 µg/mL (≈ 2.24 µM)
LD50 [19]: 106 mg/kg
solubility in organic solvents [20]: insoluble
solubility in ethanol and acetone [20]: slightly soluble
solubility in methanol [20]: soluble
solubility in water [20]: very soluble
activity of purified preparate ([21]; Example 2): 970 units/mg
activity of purified preparate [21, 29]: about 985 unit/mg
antibacterial activity [22]: very strong antibacterial activity
antibacterial activity against certain resistant strains [23]: strong antibacterial activity

CN[C@@H]1[C@@H](O)[C@@H](O[C@@H]2[C@@H](O)[C@H](O[C@H]3OC(CN)=CC[C@H]3N)[C@@H](N)C[C@H]2N)OC[C@]1(C)O [sisomicin]
effect on resistant strains [24]: ineffective

CNC1C(O)C(OC2C(N)CC(N)C(OC3OC(CN(C)C)CCC3N)C2O)OCC1(C)O (stereo not shown) [sulfate salt of XK-62-4]
activity [21]: about 625 units

NCC1OC(OC2C(N)CC(N)C(OC3OC(CO)C(O)C(N)C3O)C2O)C(O)C(O)C1O (stereo not shown) [kanamycin A]
effect on resistant strains [24]: ineffective

NC[C@@H]1CC[C@@H](N)[C@@H](O[C@H]2[C@H](O)[C@@H](O[C@H]3O[C@H](CO)[C@@H](O)[C@H](N)[C@H]3O)[C@H](N)C[C@@H]2N)O1 [dibekacin, 3,4-dideoxy kanamycin B]
effect on resistant strains [24]: ineffective

NC[C@H]1O[C@H](O[C@H]2[C@H](O)[C@@H](O[C@H]3O[C@H](CO)[C@@H](O)[C@H](N)[C@H]3O)[C@H](N)C[C@@H]2N)[C@H](O)[C@@H](O)[C@@H]1O [kanamycin]
effect on resistant strains [25]: ineffective

CNCC1CCC(N)C(OC2C(N)CC(N)C(OC3OCC(C)(O)C(NC)C3O)C2O)O1 (stereo not shown) [sagamicin (antibiotic XK-62-2)]
effect on resistant strains [25]: ineffective

CNC1CC(N)C(OC2OCC(C)(O)C(NC)C2O)C(O)C1OC1OC(CN)CCC1N (stereo not shown) [sulfate salt of XK-62-3]
activity [21]: about 630 units

CNC1C(O)C(OC2C(N)CC(N)C(OC3OC(CN(C)C)CCC3N)C2O)OCC1(C)O (stereo not shown) [XK-62-4]
MIC [1]: < 0.0011 µg/mL
MIC [2]: 0.0021 µg/mL (≈ 0.0044 µM)
MIC [3]: 0.0082 µg/mL (≈ 0.0172 µM)
MIC [4]: 0.066 µg/mL (≈ 0.138 µM)
MIC [5]: 0.033 µg/mL (≈ 0.0691 µM)
MIC [6]: 0.066 µg/mL (≈ 0.138 µM)
MIC [26]: 0.033 µg/mL (≈ 0.0691 µM)
MIC [10]: 0.26 µg/mL (≈ 0.544 µM)
MIC [11]: > 10 µg/mL
MIC [13]: 0.26 µg/mL (≈ 0.544 µM)
MIC [27]: 0.26 µg/mL (≈ 0.544 µM)
MIC [14]: 0.13 µg/mL (≈ 0.272 µM)
MIC [15]: 0.066 µg/mL (≈ 0.138 µM)
MIC [16]: 0.011 µg/mL (≈ 0.023 µM)
MIC [17]: 0.26 µg/mL (≈ 0.544 µM)
LD50 [19]: 25.9 mg/kg
solubility in organic solvents [20]: insoluble
solubility in ethanol and acetone [20]: slightly soluble
solubility in methanol [20]: soluble
solubility in water [20]: very soluble
activity of purified preparate [21, 29]: about 980 unit/mg
activity [21]: 970 units
antibacterial activity [22]: very strong antibacterial activity
antibacterial activity against certain resistant strains [28]: strong antibacterial activity
